Measurements taken from US10966969B2, “Therapeutic agent for liver diseases” (APTABIO THERAPEUTICS INC., priority 2017, dated 2021).

Columns and labels:
[1] = test system: fatty liver model animal induced by MCD (methionine/choline deficient) diet; assay: Test using fatty liver model animal induced by MCD (methionine/choline deficient) diet; type: in vivo, Sprague Dawley (SD) rats; settings: MCD diet rats, daily single dose of 60 mg/kg, compared to the vehicle group
Method: As subject animals, 6-week-old male Sprague Dawley (SD) rats were purchased. All rats were kept under standard conditions. When the rats became 12 weeks old after being bred for about 6 weeks, test substances were administered to the rats. Test groups were set based on ALT level in blood collected at 5 weeks. For 5 weeks after the rats became 12 weeks old, test substances were separately administered to a vehicle administration group and a 3-phenyl-4-n-propyl-1-(pyridin-2-yl)-1H-pyrazol-5-ol hydrochloride administration group. A normal control group was used as a negative control. Blood was collected one day before the start of the experiment (from the jugular vein), and blood samples were collected on the 3 weeks, 5 weeks, 7 weeks, 9 weeks and on the day of the autopsy (24 hours after the fasting, total six times). In addition, plasma of each blood sample collected on the 5 weeks, 7 weeks, 9 weeks and on the day of the autopsy were analyzed. After completion of the test, the animals were anesthetized, liver tissues were taken out from respective animals and blood for inspection was collected. The liver tissues were weighed and imaged. The liver tissues were immobilized in 10% buffered neutral formalin. […] In addition to H&E staining, Oil red-O staining was conducted in order to observe lipids induced by formation of fatty liver, levels of produced lipids were measured and an effect of drug administration on reduction of lipids was predicted. […] The serum of the upper layer was taken and the level of alanine transaminase (ALT) was measured using an automatic blood biochemical analyzer (AU480, Beckman 30-18 Coulter, USA) and the results were analyzed. A ratio of liver weight to body weight was measured and the amount of triglyceride in liver tissues was measured to expect effects of drug administration on reduction of relative liver weight and triglyceride. […] Results are analyzed.

[2] = test system: fatty liver model animal induced by high fat diet; assay: Test using fatty liver model animal induced by high fat diet; type: in vivo; settings: high fat diet rats, daily single dose of 60 mg/kg, compared to the vehicle group and the obeticholic acid group
Method: As subject animals, 6-week-old rats were purchased. All rats were kept under standard conditions. When the rats became 12 weeks old after being bred for about 6 weeks, test substances were administered to the rats. Test groups were set based on ALT level in blood collected at 5 weeks. For 5 weeks after the rats reached 12 weeks old, test substances were separately administered to a vehicle administration group, an obeticholic acid administration group as a positive control group, and a 3-phenyl-4-normalpropyl-1-(pyridin-2-yl)-1H-pyrazol-5-ol hydrochloride administration group. Blood was collected one day before the start of the experiment (from jugular vein), and blood samples were collected on the 5 weeks, 8 weeks and on the day of the autopsy (24 hours after the fasting, total 4 times). In addition, plasma of each blood sample collected on the 5th week, 8th week and the day of the autopsy were analyzed. After completion of the test, the animals were anesthetized, liver tissues were taken out from respective animals and blood for inspection was collected. The liver tissues were weighed and imaged. The liver tissues were immobilized in 10% buffered neutral formalin. The immobilized tissues were cut to a predetermined thickness, subjected to a general tissue treatment process, embedded in paraffin and produced into tissue sections with a size of 4 to 5 μm, and the tissue sections were subjected to Hematoxylin & Eosin (H&E stain) as a general staining method and were histopatho-logically observed. In addition to H&E staining, Oil red-o staining was conducted in order to observe lipids induced by formation of fatty liver, levels of produced lipids were measured and an effect of drug administration on reduction of lipids was predicted. The liver tissues were stained with an Oil red o working solution, to evaluate levels of produced lipids. Blood was collected and centrifuged at 3000 rpm at 4° C. for 10 min. The serum of the upper layer was taken and the levels of alkaline phosphate (ALP), aspartate transminase (AST) and alanine transaminase (ALT) were measured using an automatic blood biochemical analyzer (AU480, Beckman 30-18 Coulter, USA) and the results were analyzed. A ratio of liver weight to body weight was measured and the amount of triglyceride in liver tissues was measured to expect effects of drug administration on reduction of relative liver weight and triglyceride. The liver tissues were ground with a homogenizer, chloroform and methanol (2:1) were added thereto, the resulting mixture was centrifuged at 3,000 rpm and at 4° C. for 10 minutes and the organic solvent layer containing lipids was separated. The organic solvent in the separated lipid layer was removed in the dryer at 50° C. for 12 hours. […]

[3] = test system: fatty liver model animal induced by diabetic db/db mice; assay: Test using fatty liver model animal induced by diabetic db/db mice; type: in vivo, diabetic db/db mice (C57BLKS/J-leprdb/leprdb); settings: daily single dose of 60 mg/kg
Method: As subject animals, 6-week-old male diabetic db/db mice (C57BLKS/J-leprdb/leprdb) were purchased from Jackson Laboratory (Bar Harbor, Me., USA). The mice were kept under standard conditions. When the mice became 8 weeks old after being bred for about 2 weeks, test substances were administered to the mice. For 12 weeks after the mice became 8 weeks old, test substances were separately administered to a vehicle administration group and a 3-phenyl-4-normalpropyl-1-(pyridin-2-yl)-1H-pyrazol-5-ol hydrochloride administration group. A normal control group was used as a negative control. After completion of the test, the animals were anesthetized, liver tissues were taken out from respective animals and blood for inspection was collected. The liver tissues were weighed and imaged. The liver tissues were immobilized in 10% buffered neutral formalin. The immobilized tissues were cut to a predetermined thickness, subjected to a general tissue treatment process, embedded in paraffin and produced into tissue sections with a size of 4 to 5 μm, and the tissue sections were subjected to Hematoxylin & Eosin (H&E stain) as a general staining method and were histopatho-logically observed. In addition to H&E staining, Oil red-O staining was conducted in order to observe lipids induced by formation of fatty liver, levels of produced lipids were measured and an effect of drug administration on reduction of lipids was predicted. The liver tissues were stained with an Oil red 0 working solution, to evaluate levels of produced lipids. Blood was collected and centrifuged at 3000 rpm at 4° C. for 10 min. The serum of the upper layer was taken and the levels of triglyceride (TG) and LDL-cholesterol (LDL-C) were measured using an automatic blood biochemical analyzer (AU480, Beckman 30-18 Coulter, USA) and the results were analyzed. A ratio of liver weight to body weight was measured and the amount of triglyceride in liver tissues was measured to expect effects of drug administration on reduction of relative liver weight and triglyceride. The liver tissues were ground with a homogenizer, chloroform and methanol (2:1) were added thereto, the resulting mixture was centrifuged at 3,000 rpm and at 4° C. for 10 minutes and the organic solvent layer containing lipids was separated. The organic solvent in the separated lipid layer was removed in the dryer at 50° C. for 12 hours. The lipid-only tubes were immersed in 100% EtOH, and then suspended in a lipid-free tube and then assayed with a kit reagent for measuring triglyceride (AM157S-K, Asan, Korea).

[4] = compared to the vehicle group, FIG. 6C

Compound: CCCc1c(-c2ccccc2)nn(-c2ccccn2)c1O.Cl [compound 1, 3-phenyl-4-n-propyl-1-(pyridin-2-yl)-1H-pyrazol-5-ol hydrochloride]
- level of ALT in the blood ([1]; FIG. 1): significantly reduced
- inflammation in liver tissues (staining of α-SMA, IL-1β and TNF-α) ([1]; FIG. 2): considerably reduced
- liver tissue damage and hepatic fibrosis (TGF-β, H&E staining, Oil red O staining) ([1]; FIG. 3): reduced
- relative liver weight ([2]; FIG. 4A): significantly reduced
- level of ALP in blood ([2]; FIG. 4B-4D): considerably decreased
- level of ALT in blood ([2]; FIG. 4B-4D): considerably decreased
- level of AST in blood ([2]; FIG. 4B-4D): considerably decreased
- level of LDL in blood ([3]; FIG. 6A and 6B): decreasing levels
- level of LDL in liver tissues ([3]; FIG. 6A and 6B): decreasing levels
- level of TG in blood ([3]; FIG. 6A and 6B): decreasing levels
- level of TG in liver tissues ([3]; FIG. 6A and 6B): decreasing levels
- liver tissue damage and hepatic fibrosis (TGF-β and Type IV collagen staining in liver tissues) ([3]; compared to the vehicle group, FIG. 5): significantly reduced
- mRNA expression of MCP-1 in liver tissues [3, 4]: considerably reduced
- mRNA expression of PAI-1 in liver tissues [3, 4]: considerably reduced
- mRNA expression of TGF-β in liver tissues [3, 4]: considerably reduced
- mRNA expression of collagen I in liver tissues [3, 4]: considerably reduced
- mRNA expression of collagen IV in liver tissues [3, 4]: considerably reduced
